Values of other authors in patent publication US20080004343A1, “Stable polymorphs of (E)-N,N-diethyl-2-cyano-3-(3,4-dihydroxy-5-nitrophenyl)acrylamide” (Wockhardt Limited, priority 2006, published 2008).

Row | SMILES | stability under the influence of heat or acids | isomerization to polymorphic form A on standing (standing at room temperature)
1 | CCN(CC)C(=O)C(C#N)=Cc1cc(O)c(O)c([N+](=O)[O-])c1 [(Z)-isomer, N,N-diethyl-2-cyano-3-(3,4-dihydroxy-5-nitrophenyl)acrylamide] | unstable | 
2 | CCN(CC)C(=O)/C(C#N)=C/c1cc(O)c(O)c([N+](=O)[O-])c1 [polymorphic form B, (E)-N,N-diethyl-2-cyano-3-(3,4-dihydroxy-5-nitrophenyl)acrylamide] | unstable | isomerizes slowly to the polymorphic form A
